Measured values from patent publication US20230134714A1, “COMPOSITIONS COMPRISING BACTERIAL STRAINS” (4D PHARMA RESEARCH LIMITED, priority 2018, published 2023).
Counter-ions that a name gives are not always drawn.

Key:
[1] = system: graft versus host disease (GVHD) induced in Balb/C mice; assay: GVHD model (TBI plus allogeneic cell transfer); format: in vivo
Source text: All animals were weighed and randomized by weight into treatment groups prior to study start. Prior to GVHD induction on Days −1 and 0, all animals were pre-treated (PO) with PBS (Groups 1-4), NCIMB 43171 (Group 5), or Butyrate salt control (Group 6) daily starting on Day −14. Butyrate was used as a positive control as butyrate deficit has been identified in the gut of GVHD patients.
GVHD was induced in mice using a single acute dose of 8 Gy of total body irradiation (TBI) on Day −1. On Day 0, these recipient mice were given an intravenous injection of a combination of T cell depleted bone marrow cells and splenic cells from donor C57Bl/6 mice in PBS. Bone marrow cells were isolated using standard flushing practices, and were T cell depleted using the cell surface T cell antigen CD3, with a CD3-biotin kit (Miltenyi Biotec catalog 130-094-973). Splenocytes were isolated using Miltenyi GentleMACS Dissociators. Animals in Group 1 served as naïve controls and received neither TBI nor cell transfer. […] Animals in Group 3 served as syngeneic adoptive transfer controls; these animals received 8 Gy of TBI on Day −1, and an intravenous injection of a combination of T cell depleted bone marrow cells and splenic cells from donor Balb/C mice in sterile PBS.
Daily test article dosing continued for the duration of the study (Days −14 to 30). Animal survival was recorded daily, as an indication of GVHD severity. Animals were also weighed, observed, and given a clinical GVHD score daily for the duration of the study following GVHD induction. The GVHD score was assessed by a standard scoring system based on five criteria (Table 21): percentage of weight change, posture (hunching), activity, fur texture, and skin integrity (maximum score=10).
On Day 29, all surviving animals underwent endoscopy to monitor colonic inflammation.
On Day 30, blood was collected by RO bleed; blood (approximately 150-300 μL) was collected into two tubes—approximately two third of the blood was collected into K2EDTA tubes, and the remaining one third was collected into lithium-heparin tubes. Both samples were centrifuged and processed for plasma, and plasma tubes were clearly labeled to indicate the anti-coagulant used. For the K2EDTA sample, plasma was aliquoted as follows: 25 μL (for use in downstream citrulline assay), and remainder. All plasma was frozen at −80° C. All K2EDTA samples were assessed for citrulline by ELISA upon study completion

HDAC [2] = assay: Global HDAC activity analysis in HT-29 cells; format: cell-based; settings: for inhibition of total HDAC activity: whole HT-29 cells or cell lysate not specified
Protocol: Whole cells and cell free supernatants of stationary phase 43042 cultures were isolated by centrifugation and filtering in a 0.22 uM filter. HT-29 cells were used 3 days' post confluence and stepped down in 1 mL DTS 24 hours prior to commencement of the experiment. The HT-29 cells were challenged with 10% cell free supernatant diluted in DTS and this was left to incubate for 48 hours. […] proteins were then extracted using the Sigma Aldrich […] extraction kit and samples were snap frozen prior to HDAC activity measurement. HDAC activity kit was assessed fluorometrically using the Sigma Aldrich (UK) kit.
(§1) To investigate which metabolites were responsible for the strain-induced HDAC inhibition, different concentrations of hexanoic acid, valeric acid and sodium butyrate were measured for their HDAC inhibition on whole HT-29 cells and on HT-29 cell lysate.

HDAC [3] = assay: HDAC inhibition on HT-29 cell lysate; format: biochemical; settings: different concentrations
Protocol: as §1

[4] = compared with Group 4 (PBS-TBI+allogeneic transfer)

**Q.** For `CCCC(=O)O` [Butyrate salt control], which “mean body weight over the course of the study” value ([1]; compared to Group 1 (PBS-naive)) is on record?
**A.** significantly decreased

**Q.** What about the “mean body weight over the course of the study” value ([1]; compared to Group 3 (PBS-TBI+syngeneic transfer)) of the same compound?
**A.** significantly decreased

**Q.** What about the “mean body weight over the course of the study” value [1, 4] of the same compound?
**A.** No significant differences

**Q.** And the “mean colitis severity scores” value ([1]; endoscopy Day 29, compared to naive mice (Group 1))?
**A.** increased

**Q.** Which “inhibition of total HDAC activity” value (HDAC [2]) does the source give for `CCCCC(=O)O` [Valeric acid, valeric acid] here?
**A.** inhibited total HDAC activity

**Q.** Which “inhibition of total HDAC activity” value (HDAC [2]) does the source give for `CCCCCC(=O)O` [hexanoic acid] here?
**A.** did show significant inhibitory activity

**Q.** `CCCC(=O)[O-].[Na+]` [sodium butyrate, Sodium butyrate] was tested. Which “inhibition of HDAC activity on HT-29 cell lysate” value (HDAC [3]) did it give?
**A.** significant (P<0.05) inhibition

**Q.** And the “inhibition of HDAC activity on whole HT-29 cells” value (HDAC [2]; different concentrations, whole cells)?
**A.** significant (P<0.05) inhibition

**Q.** Which results are given for `C=CC[C@@H]1/C=C(\C)C[C@H](C)C[C@H](OC)[C@H]2O[C@@](O)(C(=O)C(=O)N3CCCC[C@H]3C(=O)O[C@H](/C(C)=C/[C@@H]3CC[C@@H](O)[C@H](OC)C3)[C@H](C)[C@@H](O)CC1=O)[C@H](C)C[C@@H]2OC` [tacrolimus]?
**A.** mean GVHD scores ([1]; compared to Group 3): trend was also observed; mean body weight over the course of the study [1, 4]: same trend was observed
